# Measured values from US5817670A, “Naphthyridine derivatives and pharmaceutical compositions thereof” (Yamanouchi Pharmaceutical Co., Ltd., priority 1994, dated 1998).
# pIC50: −log10 of the molar value. Counter-ions that a name gives are not always drawn.
# Target: T1, type II phosphodiesterase (Rattus norvegicus, UniProt Q01062)
# T1 construct: purified from rat heart muscle cells; from tissue; host or cells: rat heart, soluble fraction, Q Sepharose
# T1 sequence (Q01062 1-928): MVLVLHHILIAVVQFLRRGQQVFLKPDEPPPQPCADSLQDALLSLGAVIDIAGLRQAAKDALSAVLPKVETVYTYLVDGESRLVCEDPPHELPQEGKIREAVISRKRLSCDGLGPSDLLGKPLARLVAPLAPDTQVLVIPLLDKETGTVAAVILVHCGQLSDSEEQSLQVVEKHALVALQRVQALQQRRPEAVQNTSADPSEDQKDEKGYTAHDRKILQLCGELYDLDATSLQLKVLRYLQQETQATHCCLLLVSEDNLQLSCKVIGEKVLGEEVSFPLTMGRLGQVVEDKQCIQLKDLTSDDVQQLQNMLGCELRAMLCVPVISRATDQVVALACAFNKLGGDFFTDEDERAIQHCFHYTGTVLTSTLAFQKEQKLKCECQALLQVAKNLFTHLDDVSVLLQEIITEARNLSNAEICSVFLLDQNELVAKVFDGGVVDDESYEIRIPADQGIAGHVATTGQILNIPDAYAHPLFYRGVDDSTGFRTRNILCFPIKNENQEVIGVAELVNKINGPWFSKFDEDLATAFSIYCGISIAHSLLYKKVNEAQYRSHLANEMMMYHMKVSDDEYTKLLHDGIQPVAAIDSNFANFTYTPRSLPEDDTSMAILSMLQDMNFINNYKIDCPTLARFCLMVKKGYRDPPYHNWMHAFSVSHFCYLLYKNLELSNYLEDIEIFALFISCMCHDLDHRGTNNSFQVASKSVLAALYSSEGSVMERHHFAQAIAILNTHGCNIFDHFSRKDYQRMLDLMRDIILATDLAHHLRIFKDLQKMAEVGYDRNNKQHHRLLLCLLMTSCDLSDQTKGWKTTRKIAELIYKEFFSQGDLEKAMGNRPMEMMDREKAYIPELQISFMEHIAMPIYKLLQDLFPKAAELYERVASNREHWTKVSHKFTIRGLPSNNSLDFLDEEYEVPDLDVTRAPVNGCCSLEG
# Test: Phosphodiesterase inhibition activity (in vitro), Type II
# Format: biochemical
# Conditions: Type II phosphodiesterase column
# From the text: (A) In order to evaluate selectivity of the compounds of the present invention for type IV phosphodiesterase, types I, II, III and V phosphodiesterase isozymes were purified in the following manner.
# 1) Solutions containing various phosphodiesterase (types I, II and III) isozymes were purified from rat heart muscle cells in the following manner. Under ether anesthesia, Wistar rat was subjected to thoracotomy to excise the heart. After removing blood by perfusion with physiological saline supplemented with heparin (1 unit/ml), the heart was finely chopped with scissors. This was suspended in buffer A (20 mM Bis-Tris, 5 mM dithioerythritol, 2 mM EGTA and 50 mM sodium acetate, pH 6.5) containing a protease inhibitor (50 μM phenyl-methyl-sulfonyl-fluoride, 5 μM pepstatin A, 40 μM leupeptin, 20 μM aprotinin or 2 mM benzamidine) and then the cells were disrupted using polytron and sonicator and subjected to ultracentrifugation (4° C., 100,000×g, 60 minutes) to give a soluble fraction.
# 2) Solutions containing various phosphodiesterase isozymes were obtained from the thus obtained soluble fraction in the following manner. The thus, obtained soluble fraction was applied to a column of 1.6×10.0 cm packed with Q Sepharose which had been equilibrated with buffer A. Next, said column was washed with 300 ml of buffer A to remove non-absorbed protein. Phosphodiesterase was eluted with 200 ml of buffer A having 0.05 to 1.25M linear gradient of sodium acetate to collect about 40 fractions each containing 5.0 ml eluate. Each fraction was checked for cAMP- and cGMP-metabolizing phosphodiesterase activities. Of these fractions, a fraction having only cAMP-metabolizing activity and showing disappearance of the metabolizing activity by 0.1 μM cilostamide (a type III phosphodiesterase selective inhibitor) was used as the type III phosphodiesterase. […] These fractions were separately collected to be used as phosphodiesterase (types I, II and III) stock solutions for the examination of selectivity. p1 3) A solution containing type V phosphodiesterase was prepared from peripheral blood of a healthy person in the following manner. A 200 ml portion of physiological saline supplemented with dextran (3%) was added to 500 ml of heparinized peripheral blood and incubated at 37° C. for 40 minutes to effect precipitation of erythrocytes. The supernatant fluid after precipitation of erythrocytes was recovered and centrifuged once, and the resulting precipitate was suspended in buffer B (140 mM NaCl, 5 mM KCl, 5 mm glucose and 10 mM HEPES, pH 7.4), overlaid on a solution for density gradient centrifugation use (Ficoll solution) and then centrifuged at room temperature for 40 minutes at 450×g, thereby separating monocyte fraction and granulocyte fraction. The granulocyte fraction was washed once with buffer C (140 mM NaCl, 5 mM KCl, 1 mM CaCl2, 1 mM MgCl2, 5 mM glucose and 10 mM HEPES, pH 7.4) and suspended in buffer D (20 mM Bis-Tris, 5 mM dithioerythritol, 2 mM EGTA and 50 mM sodium acetate, pH 6.5) containing a protease inhibitor (40 μM leupeptin, 5 μM pepstatin A, 20 μM aprotinin, 50 μM phenyl-methyl-sulfonyl-fluoride or 2 mM benzamidine) and then the cells were disrupted using polytron and sonicator and subjected to ultracentrifugation (4° C., 100,000×g, 60 minutes) to give a soluble fraction.
# (B) Inhibitory activities were measured using the thus obtained stock solutions of various phosphodiesterase isozymes.
# 1) A predetermined amount of each compound to be tested was subjected to 10 minutes of reaction at 30° C. in a reaction mixture containing 40 mM Tris-HCl (pH 8.0), 5 mM MgCl2, 4 mM 2-mercaptoethanol, 10 μM rolipram (a type IV phosphodiesterase selective inhibitor), 1 μM cAMP, 10 nM ^3 H-cAMP (in the case of type V phosphodiesterase, 1 μM cAMP and 10 nM ^3 H-cAMP are replaced by 1 μM cGMP and 100 nM ^3 H-cGMP) and each of the isozyme stock solutions. […]
row,pIC50,Compound
1,4.29,"Cc1cc(C)c2c(-c3cccc(Cl)c3)cc(=O)n(C)c2n1 [Example 24, 4-(3-chlorophenyl)-1,5,7-trimethyl-1,8-naphthyridin-2(1H)-one]"
2,4.69,"CCc1cc(C)c2c(-c3ccccc3)cc(=O)n(CC)c2n1 [Example 40, 1,7-Diethyl-5-methyl-4-phenyl-1,8-naphthyridin-2(1H)-one]"
3,4.68,"CCn1c(=O)cc(-c2cccc(Cl)c2)c2cccnc21 [Example 15, 4-(3-Chlorophenyl)-1-ethyl-1,8-naphthyridin-2(1H)-one]"
4,4.58,"CCn1c(=O)cc(-c2ccccc2)c2c(C)cc(C)nc21 [Example 38, 1-Ethyl-5,7-dimethyl-4-phenyl-1,8-naphthyridin-2(1H)-one]"
5,< 4.52,"CCn1c(=O)cc(C2CCCCC2)c2cccnc21 [Example 46, 4-cyclohexyl-1-ethyl-1,8-naphthyridin-2(1H)-one 0.45 hydrochloride 0.25 hydrate]"
6,4.64,"CCc1cc(C)c2c(C3CCCCC3)cc(=O)n(CC)c2n1 [Example 49, 4-cyclohexyl-1,7-diethyl-5-methyl-1,8-naphthyridin-2(1H)-one]"
7,< 4.52,"CCc1cc(C)c2c(-c3cccc(Cl)c3)cc(=S)n(C)c2n1 [Example 43, 4-(3-chlorophenyl)-7-ethyl-1,5-dimethyl-1,8-naphthyridine-2(1H)-thione]"
8,4.65,"CCc1cc(C)c2c(-c3cccc(Cl)c3)cc(=O)n(C3CC3)c2n1 [Example 35, 4-(3-Chlorophenyl)-1-cyclopropyl-7-ethyl-5-methyl-1,8-naphthyridin-2(1H)-on]"
9,4.81,"CCn1c(=O)cc(-c2cccc(Cl)c2)c2c(C)cc(C)nc21 [Example 29, 4-(3-Chlorophenyl)-1-ethyl-5,7-dimethyl-1,8-naphthyridin-2(1H)-one]"
10,< 4.52,"CCc1cc(C)c2c(-c3cccc(Br)c3)cc(=O)n(CC)c2n1 [Example 31, 4-(3-bromophenyl)-1,7-diethyl-5-methyl-1,8-naphthyridin-2(1H)-one]"
11,4.45,"CCCn1c(=O)cc(-c2cccc(Br)c2)c2c(C)cc(CC)nc21 [Example 33, 4-(3-Bromophenyl)-7-ethyl-5-methyl-1-propyl-1,8-naphthyridin-2(1H)-one]"
12,4.98,"CCn1c(=O)cc(-c2cccc(Br)c2)c2c(C)cc(C)nc21 [Example 30, 4-(3-Bromophenyl)-1-ethyl-5,7-dimethyl-1,8-naphthyridin-2(1H)-one]"
13,4.52,"CCc1cc(C)c2c(-c3ccccc3)cc(=O)n(C)c2n1 [Example 26, 7-Ethyl-1,5-dimethyl-4-phenyl-1,8-naphthyridin-2(1H)-one]"
14,4.59,"CCc1cc(C)c2c(-c3cccc(Cl)c3)cc(=O)n(C)c2n1 [Example 27, 4-(3-Chlorophenyl)-7-ethyl-1,5-dimethyl-1,8-naphthyridin-2(1H)-one]"
